Results from publication PMC5779083 (Cellular signalling, 2017).
pEC50: −log10 of the molar value. “And” between values parts separate entries of the source, which are not always exact repeats. Equal values may be shown once.

Assays:
C57BL/6 mice [1] = assay: Warm-water tail-withdrawal assay; format: in vivo; conditions: for analgesic response (increase in tail withdrawal latency): 30 min post-injection, wild type C57BL/6; for change in tail withdrawal latency after norBNI pretreatment: norBNI 10 mg/kg 3–5 days prior
rKOR [2] = target: T1, rKOR (Rattus norvegicus, UniProt P34975); conditions: rKOR expressing HEK293; cited from earlier work
rKOR [3] = target: T1, rKOR; assay: Signaling bias, ERK1/2; format: cell-based, rodent; conditions: ERK1/2 vs p38 phosphorylation, U50,488 as reference
hKOR [4] = target: T2, hKOR (Homo sapiens, UniProt P41145); assay: Signaling bias, ERK1/2; format: cell-based; conditions: ERK1/2 vs p38 phosphorylation, U50,488 as reference
hKOR [5] = target: T2, hKOR; conditions: hKOR-expressing HEK293 cells; cited from earlier work
C57BL/6 mice [6] = assay: 5′-GNTI-induced scratching; format: in vivo; conditions: for number of scratches induced: 30 μg/kg s.c.
C57BL/6 mice [7] = assay: Locomotor activity; conditions: 50 μg/kg, n=3; no impairment vs saline (p=0.73)
[8] = system: untransfected HEK293 cells; assay: ERK1/2 and p38 phosphorylation in untransfected HEK293 cells; format: cell-based; conditions: untransfected HEK293, 1 μM, 5 min (pERK) or 30 min (pp38), n=3
C57BL/6 mice [9] = assay: Acute cross-tolerance to U50,488 in warm-water tail-withdrawal assay; format: in vivo; conditions: 1 mg/kg i.p. pretreatment
rMOR = rMOR (Rattus norvegicus, UniProt P33535); assay: ERK1/2 phosphorylation; format: cell-based
Chain of rMOR (P33535 whole entry): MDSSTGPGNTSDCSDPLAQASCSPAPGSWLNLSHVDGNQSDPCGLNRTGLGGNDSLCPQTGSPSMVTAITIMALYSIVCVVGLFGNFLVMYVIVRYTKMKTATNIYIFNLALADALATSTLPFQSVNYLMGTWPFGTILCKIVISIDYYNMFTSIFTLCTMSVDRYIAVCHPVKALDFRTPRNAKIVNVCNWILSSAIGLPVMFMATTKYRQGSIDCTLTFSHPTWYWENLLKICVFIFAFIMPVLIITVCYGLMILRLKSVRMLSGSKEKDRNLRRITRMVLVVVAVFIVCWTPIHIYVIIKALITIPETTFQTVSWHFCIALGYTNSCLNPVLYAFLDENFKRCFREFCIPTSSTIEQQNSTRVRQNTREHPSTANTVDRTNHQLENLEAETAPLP

T2 sequence (P41145 whole entry): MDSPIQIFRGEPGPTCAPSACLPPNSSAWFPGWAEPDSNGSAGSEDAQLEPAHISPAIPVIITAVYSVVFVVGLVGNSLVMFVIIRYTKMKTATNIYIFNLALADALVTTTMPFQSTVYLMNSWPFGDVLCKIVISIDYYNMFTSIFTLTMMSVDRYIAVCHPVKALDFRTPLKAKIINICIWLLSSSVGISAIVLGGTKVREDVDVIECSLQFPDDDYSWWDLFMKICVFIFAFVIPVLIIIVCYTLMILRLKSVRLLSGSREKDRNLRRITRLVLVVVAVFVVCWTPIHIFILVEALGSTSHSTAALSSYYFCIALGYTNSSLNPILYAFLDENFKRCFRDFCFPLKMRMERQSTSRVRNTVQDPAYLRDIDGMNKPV
T1 sequence (P34975 whole entry): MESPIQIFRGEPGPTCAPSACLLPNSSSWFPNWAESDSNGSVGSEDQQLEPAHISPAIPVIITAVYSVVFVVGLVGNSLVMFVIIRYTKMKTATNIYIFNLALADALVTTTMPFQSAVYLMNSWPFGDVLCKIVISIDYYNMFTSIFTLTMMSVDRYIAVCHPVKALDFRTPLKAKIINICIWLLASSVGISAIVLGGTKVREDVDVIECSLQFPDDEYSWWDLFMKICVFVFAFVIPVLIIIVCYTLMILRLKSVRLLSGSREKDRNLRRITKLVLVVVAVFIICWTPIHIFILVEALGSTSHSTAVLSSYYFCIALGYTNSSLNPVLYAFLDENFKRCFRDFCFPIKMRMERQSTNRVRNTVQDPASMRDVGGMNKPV

Oc1ccc2c3c1O[C@H]1c4[nH]c5c(c4C[C@@]4(O)[C@@H](C2)N(CC2CC2)CC[C@]314)C[C@@]1(O)[C@H]2Cc3ccc(O)c4c3[C@@]1(CCN2CC1CC1)[C@H]5O4 [norBNI, norbinaltorphimine]
effect on U50,488-mediated increase in withdrawal latency (C57BL/6 mice [1]; norBNI 10 mg/kg 3–5 days prior to U50,488, p < 0.01): blocked
effect on nalfurafine-mediated increase in withdrawal latency (C57BL/6 mice [1]; norBNI 10 mg/kg 3–5 days prior to nalfurafine, p < 0.05): blocked

CC(C)=CCN1CCC2(C)c3cc(O)ccc3CC1C2C (stereo not shown) [Pentazocine]
signaling bias (in words) (rKOR [2]): unbiased
Bias factor (rKOR [3]): 1.4
ΔΔlog(RA) Mean (SEM) (rKOR [3]): 0.14 (0.79)
Bias factor (hKOR [4]): 0.62
ΔΔlog(RA) Mean (SEM) (hKOR [4]): −0.20 (0.78)
signaling bias (in words) (hKOR [5]): p38-biased

Oc1ccc2c(c1)[C@@]13CCCC[C@@]1(O)[C@@H](C2)N(CC1CCC1)CC3 [Butorphanol]
signaling bias (in words) (rKOR [2]): G protein biased
signaling bias (in words) (hKOR [5]): p38-biased

NC(N)=Nc1ccc2[nH]c3c(c2c1)C[C@@]1(O)[C@H]2Cc4ccc(O)c5c4[C@@]1(CCN2CC1CC1)[C@H]3O5 [5′-GNTI]
number of scratches induced (C57BL/6 mice [6]; KOR−/− mice, n=8): 550 ± 84 times in 30 min
number of scratches induced (C57BL/6 mice [6]; wild type mice, n=10): 566 ± 60 times in 30 min

CN(C(=O)/C=C/c1ccoc1)[C@@H]1CC[C@@]2(O)[C@H]3Cc4ccc(O)c5c4[C@@]2(CCN3CC2CC2)[C@H]1O5 [Nalfurafine, (2E)-N-[(5α,6β)-17-(cyclopropylmethyl)-3,14-dihydroxy-4,5-epoxymorphinan-6-yl]-3-(3-furyl)-N methylacrylamide]
general locomotor activity, distance moved over 30 min (C57BL/6 mice [7]): 3531 ± 1215 cm
5′-GNTI-induced scratching after pretreatment (C57BL/6 mice [6]; 20 μg/kg s.c. 20 min prior to 5′-GNTI, wild type C57BL/6, n=10, not significant): 556 ± 67 scratches in 30 min
5′-GNTI-induced scratching after pretreatment (C57BL/6 mice [6]; 50 μg/kg s.c. 20 min prior to 5′-GNTI 30 μg/kg, KOR−/− mice, n=8, not significant): 580 ± 16 times in 30 min
5′-GNTI-induced scratching after pretreatment (C57BL/6 mice [6]; 50 μg/kg s.c. 20 min prior to 5′-GNTI 30 μg/kg, MOR−/− mice, n=8): 99 ± 40 times in 30 min
5′-GNTI-induced scratching after pretreatment (C57BL/6 mice [6]; 50 μg/kg s.c. 20 min prior to 5′-GNTI 30 μg/kg, wild type, n=9): 241±33 times in 30 min
increase in ERK1/2 or p38 phosphorylation [8]: No significant increase
Bias factor (rKOR [3]): 7 and 7.2
ΔΔlog(RA) Mean (SEM) (rKOR [3]): 1.15 (0.74)
ΔΔlog(RA) Mean (SEM) (hKOR [4]): 3.2 (1.02)
cross-tolerance: effect of pretreatment on U50,488-induced analgesia (C57BL/6 mice [9]; 3 h before U50,488 15 mg/kg i.p.): significantly decreased U50,488-induced analgesia
cross-tolerance: effect of pretreatment on U50,488-induced analgesia (C57BL/6 mice [9]; 24 h before U50,488 15 mg/kg i.p.): lack of residual analgesic tolerance
pEC50 (rMOR): 8.10
analgesic response (increase in tail withdrawal latency) (C57BL/6 mice [1]; 50 μg/kg i.p.): 1.5 ± 0.7 s
change in tail withdrawal latency after norBNI pretreatment (C57BL/6 mice [1]; 50 μg/kg): 0.6 ± 0.1 s
analgesic response (increase in tail withdrawal latency) (C57BL/6 mice [1]; 150 μg/kg i.p.): 1.7 ± 0.4 s
change in tail withdrawal latency after norBNI pretreatment (C57BL/6 mice [1]; 150 μg/kg): 0.7 ± 0.2 s
